pIC50: −log10 of the molar value.
target: T1, DRP1 (Homo sapiens, UniProt O00429); test: AlphaLISA assay (His-DRP1 / MiD49-GST interaction); assay type: binding; conditions: His-DRP1 200 nM, MiD49-GST 20 nM, GMP-PNP 100 uM
T1 construct: Human DRIP1 (UniProtID: O00429.4, residues 1-699); made in house; host or cells: Escherichia coli BL21 CodonPlus DE3
Experimental: Human DRIP1 (UniProtID: O00429.4, residues 1-699), and human MiD49 (UnitProtIS: Q96C03.1, residues 126-454) was cloned into a pET15b vector as an N-terminal His-tag Fusion. All constructs were transformed in Escherichia coli host strain BL21 CodonPlus DE3. Bacteria was grown in LB media with 100 μg/ml ampicillin and 34 μg/ml chloramphenicol in an orbital shaker at 37° C. until OD600 reached 0.4, at which temperature was reduced to 16° C. Recombinant protein expression was expressed for 18 hr by the addition of IPTG at OD600 of about 0.8. All cultures were spun down and bacterial pellets were used for protein purification.
For His-DRP1, the pellets were resuspended in DRP-buffer A (20 mM Tris, 500 KCl, 1.89 β-ME, pH 8.0) and protease inhibitor cocktail (Roche), followed by cell disruption by sonication (400 W, pulse 3 sec on, 3 sec off, total 20 min). The lysate was centrifuged at 20,000 g and then supernatant applied to a preequilibrated Ni-NTA column with DRP-buffer A. The column was extensively washed with buffer A containing 50 mM imidazole. Purified His-DRP1 was eluted with DRP-buffer A containing 250 mM imidazole and dialyzed overnight at 4° C. (18 kDa cutoff) against DRP-buffer A to remove imidazole. For AlphaLISA, the His tag was retained on DRP1 full-length.
For MiD49-GST, the bacterial pellets were resuspended and sonicated in MID lysis buffer (25 mM Tris-HCl, pH 7.5, 500 mM NaCl, 5% glycerol, 1 mM TCEP, and 0.5% CHAPS). The lysate was pre-cleared at 20,300 g before applying to a glutathione column. Unbound proteins were washed using MID-buffer A (25 mM Tris-HCl, pH 7.5, 300 mM NaCl, 5% glycerol, 1 mM TCEP) and MID-buffer B (25 mM Tris-HCl, pH 7.5, 300 mM NaCl, 5% glycerol, 1 mM TCEP, 1 mM GSH). The protein was eluted with MID-buffer C (25 mM Tris-HCl, pH 7.5, 300 mM NaCl, 5% glycerol, 1 mM TCEP, 10 mM GSH). The target protein was concentrated in the ultra-filtration tube with MW cutoff 30 kDa and further purified by size-exclusion chromatography on a Superdex-200 column (GE Healthcare) in buffer A. Fractions containing MiD49-GST (126-454) were pooled, concentrated, flash-frozen as single-use aliquots in liquid nitrogen and stored at −80° C.
A total of 100 nl of compounds were plated in a 384-well AlphaPlate (PerkinElmer, Waltham, MA) at concentrations 100 uM to […] in DMSO (dilution by 3.165 for 11 concentration levels). Recombinant His-DRP1 (200 nM), MiD49-GST (20 nM), and GMP-PNP (100 uM) were mixed in assay buffer (PBS with 1.5% BSA, 1 mM DTT). Five microliters of the protein mixture were added to the plate and incubate at room temperature for 30 min. Glutathione donor beads and nickel chelate acceptor beads were diluted and mixed in assay buffer to obtain 40 μg/ml of each bead. Five microliters of the mixed beads were added to each well on the microplate leading to a final bead concentration of 20 µg/ml per well. The sealed plate was incubated at room temperature for 60 min and protected from light. The AlphaLISA signal was detected with an EnVision Multilabel Reader (excitation at 680 and emission 615 nm). GraphPad Prism was used to calculate the IC50 by applying sigmoidal dose-response fit (variable slope).

T1 sequence (O00429 1-699 isoform O00429-4): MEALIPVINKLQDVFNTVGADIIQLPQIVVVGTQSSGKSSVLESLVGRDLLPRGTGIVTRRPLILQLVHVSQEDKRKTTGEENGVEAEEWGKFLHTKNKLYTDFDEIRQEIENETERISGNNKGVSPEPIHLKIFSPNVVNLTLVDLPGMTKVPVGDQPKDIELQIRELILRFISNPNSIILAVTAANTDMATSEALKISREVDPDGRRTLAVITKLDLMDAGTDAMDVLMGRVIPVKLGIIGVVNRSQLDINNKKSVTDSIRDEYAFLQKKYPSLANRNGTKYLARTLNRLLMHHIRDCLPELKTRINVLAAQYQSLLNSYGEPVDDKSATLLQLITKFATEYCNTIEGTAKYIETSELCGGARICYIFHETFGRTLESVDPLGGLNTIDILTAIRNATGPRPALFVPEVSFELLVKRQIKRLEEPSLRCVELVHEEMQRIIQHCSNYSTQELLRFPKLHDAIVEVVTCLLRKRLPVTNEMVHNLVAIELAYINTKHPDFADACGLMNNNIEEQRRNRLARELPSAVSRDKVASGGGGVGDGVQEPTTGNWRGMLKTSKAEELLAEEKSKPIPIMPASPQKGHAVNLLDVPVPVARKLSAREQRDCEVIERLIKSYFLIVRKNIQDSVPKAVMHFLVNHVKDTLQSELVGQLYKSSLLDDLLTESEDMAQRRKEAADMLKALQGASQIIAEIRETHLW

Q: `COCCOc1cc(-c2cncs2)nc2ccc(NC(=O)[C@H]3C[C@@H](OC)C3)cc12` [Example 33, cis-3-methoxy-N-(4-(2-methoxyethoxy)-2-(thiazol-5-yl)quinolin-6-yl)cyclobutane-1-carboxamide] was tested. Which pIC50 did it give?
A: > 6.30

Q: With `COCCOc1cc(-c2cncs2)nc2ccc(NC(=O)[C@H]3C[C@H](OC)C3)cc12` [Example 34, trans-3-methoxy-N-(4-(2-methoxyethoxy)-2-(thiazol-5-yl)quinolin-6-yl)cyclobutane-1-carboxamide] as the molecule, how does the pIC50 read?
A: < 5.00

Q: With `COCCOc1cc(-c2cncs2)nc2ccc(NC(=O)c3cnoc3)cc12` [Example 35, N-(4-(2-methoxyethoxy)-2-(thiazol-5-yl)quinolin-6-yl)isoxazole-4-carboxamide] as the molecule, how does the pIC50 read?
A: 6.00 to 6.30

Q: `COCCOc1cc(-c2cncs2)nc2ccc(NC(=O)[C@H](C)OC)cc12` [Example 36, (S)-2-methoxy-N-(4-(2-methoxyethoxy)-2-(thiazol-5-yl)quinolin-6-yl)propanamide] was tested. Which pIC50 did it give?
A: > 6.30

Q: With `COCCOc1cc(-c2cncs2)nc2ccc(NC(=O)[C@@H](C)OC)cc12` [Example 37, (R)-2-methoxy-N-(4-(2-methoxyethoxy)-2-(thiazol-5-yl)quinolin-6-yl)propanamide] as the molecule, how does the pIC50 read?
A: > 6.30

Q: With `COCC(C)Oc1cc(-c2cncs2)nc2ccc(NC(=O)C3COC3)cc12` (stereo not shown) [Example 38, N-(4-((1-methoxypropan-2-yl)oxy)-2-(thiazol-5-yl)quinolin-6-yl)oxetane-3-carboxamide] as the molecule, how does the pIC50 read?
A: > 6.30

Q: `COCC(C)(C)Oc1cc(-c2cncs2)nc2ccc(NC(=O)C3COC3)cc12` [Example 39, N-(4-((1-methoxy-2-methylpropan-2-yl)oxy)-2-(thiazol-5-yl)quinolin-6-yl)oxetane-3-carboxamide] was tested. Which pIC50 did it give?
A: 5.00 to 6.00

Q: `COCCOc1cc(-n2cnc(C3CC3)c2)nc2ccc(NC(=O)C3COC3)cc12` [Example 40, N-(2-(4-cyclopropyl-1H-imidazol-1-yl)-4-(2-methoxyethoxy)quinolin-6-yl)oxetane-3-carboxamide] was tested. Which pIC50 did it give?
A: > 6.30

Q: With `COCCOc1cc(-n2cnc(C)c2)nc2ccc(NC(=O)C3COC3)cc12` [Example 41, N-(4-(2-methoxyethoxy)-2-(4-methyl-1H-imidazol-1-yl)quinolin-6-yl)oxetane-3-carboxamide] as the molecule, how does the pIC50 read?
A: > 6.30

Q: How did the pIC50 turn out when `O=C(Nc1ccc2nc(-n3ccnc3)cc(OCCO)c2c1)C1COC1` [Example 42, N-(4-(2-hydroxyethoxy)-2-(1H-imidazol-1-yl)quinolin-6-yl)oxetane-3-carboxamide] was run?
A: 5.00 to 6.00

Q: How did the pIC50 turn out when `Cc1cn(-c2cc(OC3CC3)c3cc(NC(=O)C4COC4)ccc3n2)cn1` [Example 43, N-(4-cyclopropoxy-2-(4-methyl-1H-imidazol-1-yl)quinolin-6-yl)oxetane-3-carboxamide] was run?
A: 5.00 to 6.00

Q: How did the pIC50 turn out when `CCOc1cc(-n2cnc(Cl)c2)nc2ccc(NC(=O)C3COC3)cc12` [Example 44, N-(2-(4-chloro-1H-imidazol-1-yl)-4-ethoxyquinolin-6-yl)oxetane-3-carboxamide] was run?
A: 6.00 to 6.30

Q: With `CCOc1cc(-n2cnnc2)nc2ccc(NC(=O)C3COC3)cc12` [Example 45, N-(4-ethoxy-2-(4H-1,2,4-triazol-4-yl)quinolin-6-yl)oxetane-3-carboxamide] as the molecule, how does the pIC50 read?
A: 5.00 to 6.00

Q: `CCOc1cc(-n2cnc(C#N)c2)nc2ccc(NC(=O)C3COC3)cc12` [Example 46, N-(2-(4-cyano-1H-imidazol-1-yl)-4-ethoxyquinolin-6-yl)oxetane-3-carboxamide] was tested. Which pIC50 did it give?
A: 5.00 to 6.00

Q: `CCOc1cc(-n2cnc(C(C)(C)C)c2)nc2ccc(NC(=O)C3COC3)cc12` [Example 47, N-(2-(4-(tert-butyl)-1H-imidazol-1-yl)-4-ethoxyquinolin-6-yl)oxetane-3-carboxamide] was tested. Which pIC50 did it give?
A: < 5.00

Q: With `COC[C@H](C)Oc1cc(-c2cncs2)nc2ccc(NC(=O)C(C)C#N)cc12` (stereo partly drawn) [Example 48, 2-cyano-N-(4-(((S)-1-methoxypropan-2-yl)oxy)-2-(thiazol-5-yl)quinolin-6-yl)propanamide] as the molecule, how does the pIC50 read?
A: 6.00 to 6.30

Q: With `COC[C@@H](C)Oc1cc(-c2cncs2)nc2ccc(NC(=O)C(C)C#N)cc12` (stereo partly drawn) [Example 49, 2-cyano-N-(4-(((R)-1-methoxypropan-2-yl)oxy)-2-(thiazol-5-yl)quinolin-6-yl)propanamide] as the molecule, how does the pIC50 read?
A: 5.00 to 6.00

Q: How did the pIC50 turn out when `COC[C@H](C)Oc1cc(-c2cncs2)nc2ccc(NC(=O)[C@H](C)OC)cc12` [Example 50, (S)-2-methoxy-N-(4-(((S)-1-methoxypropan-2-yl)oxy)-2-(thiazol-5-yl)quinolin-6-yl)propanamide] was run?
A: 5.00 to 6.00

Q: With `COC[C@@H](C)Oc1cc(-c2cncs2)nc2ccc(NC(=O)[C@H](C)OC)cc12` [Example 51, (S)-2-methoxy-N-(4-(((R)-1-methoxypropan-2-yl)oxy)-2-(thiazol-5-yl)quinolin-6-yl)propanamide] as the molecule, how does the pIC50 read?
A: < 5.00

Q: With `COC[C@@H](C)Oc1cc(-c2cncs2)nc2ccc(NC(=O)C3COC3)cc12` [Example 52, (R)—N-(4-((1-methoxypropan-2-yl)oxy)-2-(thiazol-5-yl)quinolin-6-yl)oxetane-3-carboxamide] as the molecule, how does the pIC50 read?
A: 5.00 to 6.00

Q: `COCCOc1cc(-c2cnn(C)c2)nc2ccc(NC(=O)C3COC3)cc12` [Example 53, N-(4-(2-methoxyethoxy)-2-(1-methyl-1H-pyrazol-4-yl)quinolin-6-yl)oxetane-3-carboxamide] was tested. Which pIC50 did it give?
A: 6.00 to 6.30

Q: How did the pIC50 turn out when `CCOc1cc(-n2cnc(C)c2)nc2c(C)cc(NC(=O)C3COC3)cc12` [Example 54, N-(4-ethoxy-8-methyl-2-(4-methyl-1H-imidazol-1-yl)quinolin-6-yl)oxetane-3-carboxamide] was run?
A: 5.00 to 6.00

Reference: patent US20260125372A1, “DYNAMIN-1-LIKE PROTEIN INHIBITORS AND USES THEREOF” (Astellas Engineered Small Molecules US, Incorporated, priority 2022, published 2026)
